These are literature values, as cited in article PMC11702666, “The anti-COVID-19 drug Paxlovid crosses biological barriers of the placenta and brain in rats” (npj Viruses, 2024).

The conditions of series [1]: cited from earlier work.
The conditions of series [2]: PBPK model LeiCNS-PK3.0; recommended dosing regimen; cited from earlier work.
For series [3] the following is noted: male rats; cited from earlier work.
The subject of series [4] is CYP3A. Conditions: cited from earlier work; for AUC0 to infinity: midazolam 2 mg p.o.
The conditions of series [5]: oral; cited from earlier work.

Entries after “also recorded” stand apart in the source; their conditions may differ. Where two headings read alike, the source gives them in different places.

Take `CC(C)C(=O)OC[C@H]1O[C@@H](n2ccc(NO)nc2=O)[C@H](O)[C@@H]1O` [molnupiravir]: the placental barrier transfer result in series [1] (pregnant rats) was “traverse the placental barrier; also recorded: transfer to the placental barrier”. Besides, the “predicted brain penetration / effective concentrations against SARS-CoV-2” value in series [2] was “unable to penetrate the BBB”. Besides, in series [3], the “blood–brain barrier transfer” value was “exhibit the potential to cross the blood–brain barrier”.
Consider `CCC(CC)COC(=O)[C@H](C)N[P@](=O)(OC[C@H]1O[C@@](C#N)(c2ccc3c(N)ncnn23)[C@H](O)[C@@H]1O)Oc1ccccc1` [remdesivir], for which the placental barrier transfer result in series [1] (experimental animal model) was “transfer to the placental barrier”. In addition, the “predicted brain penetration / effective concentrations against SARS-CoV-2” value in series [2] was “unable to penetrate the BBB”.
Turning to `Cc1ncc2n1-c1ccc(Cl)cc1C(c1ccccc1F)=NC2` [midazolam], the “increase of apparent CYP3A activity during pregnancy” value in series [4] (for midazolam) is 35-38%. Moreover, the AUC0 to infinity was 17.9 ± 6.0 ng·h/mL in series [4] (postpartum) and 9.5 ± 4.3 ng·h/mL in series [4] (pregnancy, healthy pregnant women). In series [4] (pregnancy vs postpartum, from midazolam AUC), the “increase in CYP3A activity” value is on record as 1.88 fold.
For the molecule `CC(C)c1nc(CN(C)C(=O)N[C@H](C(=O)N[C@@H](Cc2ccccc2)C[C@H](O)[C@H](Cc2ccccc2)NC(=O)OCc2cncs2)C(C)C)cs1` [ritonavir], in series [5], the bioavailability was roughly 80%.
